Test results reported in US10668032B2 (SyneuRx International (Taiwan) Corp., priority 2016, dated 2020).

Columns and labels:
primary cortical neurons = experiment: Aβ25-35 cytotoxicity in primary cortical culture, cell survival (MTT)
Experimental: MTT assay was used to assess the extents of cell survival. MTT (3-(4,5-dimethylthiazol-2-yl)-2,5-diphenyltetrazolium bromide) was added to the culture, incubated at 37° C. for 4 hours. Insoluble purple formazan products were yield by living cells. The colorimetric method was used to quantify the surviving cells, and “cell survival (%)” was defined as the mean numbers of surviving cells.
Primary cortical cultures were prepared as previous described. Aβ25-35 (Cat. No. A4559, Sigma) was dissolved in autoclaved ddH2O to make a stock solution of 2 mM, dispensed into aliquots, and immediately stored at −80° C. until use.

[1] = tested on: primary cortical neuronal culture; experiment: Detection of cellular reactive oxygen species (CellROX) after 3-NP in primary cortical culture; type: cell-based, rat
Experimental: Reactive oxygen species (ROS) are detected on primary cortical neuronal culture by CellROX Oxidative Reagents (catalog number 10444, Life Technologies Corp. USA). […] The cells were then exposed to 2.5 mM 3-NP for 24 hours. Subsequently, […] CellROX Reagent was added, and then incubated for […]. CellROX Green Reagent is a DNA dye, and upon oxidation, it binds to DNA; thus, its signal is localized in the nucleus and mitochondria. ROS were quantified by fluorescence intensity. The samples were observed under a laser scanning confocal microscope Zeiss LSM700 (Zeiss, Germany) equipped with filter sets to detect fluorescent signal.

[2] = tested on: B6CBA-Tg(HDexon1)62Gpb/3J mice; experiment: Survival of HDexon1 (R6/2) transgenic Huntington's disease mice; type: in vivo, mouse; settings: 256 mg/kg/day i.p. from 11 weeks after birth, vs vehicle-treated HDexon1 transgenic mice
Experimental: Animals used in the examples of the present disclosure were housed in an animal room under temperature control (24-25° C.) and 12:12 light-dark cycle. Standard laboratory chow and tap water were available ad libitum. The experiments procedures were approved by the Institutional Animal Care and Use Committee and were performed in compliance with national animal welfare regulations. Transgenic mice B6CBA-Tg(HDexon1)62Gpb/3J were purchased from the Jackson Laboratory (USA).
Drug regimen was initiated 11 weeks after birth, and continued until the end of study. […] The mice of vehicle group received injections of the same volume of saline.
Date and cause of death were recorded for each mouse. Animals were closely monitored and euthanized if moribund, which was defined as the inability of mice to right themselves 30 seconds after being placed on a side, in accordance with the criteria for severe morbidity. The moribund mice were recorded as “dead”, and euthanized using carbon dioxide.

C57BL/6J mice = experiment: Von Frey test of acute mechanical pain; type: in vivo, mouse; settings: 256 mg/kg i.p.
Experimental: Animals are housed and kept in the same condition as previous described.
The Von Frey test is used to assess mechanical nociception. A mouse is placed in a small box (10 cm×6 cm×10.5 cm) on a confined area of wire mesh (65 cm×21 cm×31 cm) (2450 Electronic Von Frey Anesthesiometer, IITC, U.S.A.). The mouse was kept in the box for 60 min to acclimatize. When the tested mouse calms down, a special tip with electrode inside was used to poke its hind paw.

[3] = tested on: MPTP/3-NP-induced C57BL/6J mice; experiment: Rotarod in MPTP plus 3-NP intoxicated mice (MSA-P model); type: in vivo, mouse; settings: 256 mg/kg body weight/day for one week after 9 days MPTP/3-NP, vs saline
Experimental: Male C57BL/6J mice (age, 8-12 weeks) were randomly assigned to 2 groups—vehicle control and MPTP/3-NP-induced groups. MPTP and 3-NP were administered during a 9-day intoxication period. 3-NP was administered i.p. every 12 h (total dose 450 mg/kg in 9 days) and MPTP i.p. at 10 mg/kg/day (total dose 90 mg/kg in 9 days).
Rotarod motor activity was measured before and after chronic MPTP/3-NP induction, respectively. Time spent on the rod at each level of revolving speed indicated motor performance. Mice were trained at the speed accelerating from 4 to 10 rpm over 5 min before the test (−7, −5, −3 Days). During the test, all animals started at 4 rpm and accelerated from 4 to 20 rpm over 5 min with each mouse experiencing three trials per day with inter-trial interval of 10 min. The average latency time of each mouse to fall is calculated.

[4] = tested on: MPTP-induced C57BL/6J mice; experiment: Pole test in MPTP-induced mice; type: in vivo, mouse; settings: 256 mg/kg body weight/day after 5 weeks of MPTP 30 mg/kg/day i.p.
Experimental: Animals were housed and kept in the same condition as previous described. Male C57BL/6J mice (age: 12 weeks) were randomly assigned to 2 groups—vehicle control and MPTP-induced groups. The mice of MPTP-induced group were intraperitoneally injected with MPTP (30 mg/kg body weight/day) for five weeks, while those in the vehicle control group received injections of the same volume of saline. After 5 weeks of MPTP exposure, pole test was performed to elucidate the effect of MPTP-induced disability.
Pole test was used to measure the degree of bradykinesia, a typical symptom of parkinsonism. The animals were positioned head upward near the top of a rough-surfaced pole (1 cm in diameter and 60 cm in height). The time taken until they turned downward (Tturn) and the total time taken to climb down to the floor (TLA), were recorded. When the mouse was not able to turn downward, Tturn was taken as 60 seconds (default value).

primary cortical cells = experiment: Oxygen-glucose deprivation (OGD) of primary cortical culture, MTT assay; type: cell-based, rat
Source text: The oxygen-glucose deprivation (OGD) is a common and well-validated cell model used for brain injuries like stroke-related studies. […] To induce the OGD model, the Neurobasal medium supplemented with B27 (GIBCO/Life Technologies of Thermo Fisher Scientific Corporation) was removed from the cultures, and then rinsed with Neurobasal-A Medium (no D-glucose and sodium pyruvate [GIBCO/Life Technologies of Thermo Fisher Scientific Corporation]). The cultured cells were maintained in a humidified incubator at 37° C. with 5% CO2 for 1 h to consume the resting glucose and pyruvate. The cultures were then subjected to an anaerobic environment of 95% N2-5% CO2 for 4 hours. Oxygen concentration was monitored by an oxygen analyzer (Proox-110, Demott St, Lacona, N.Y., USA), as maintained at approximately 1.0% throughout the experiment.

SH-SY5Y cells = experiment: MPTP toxicity in SH-SY5Y cells, MTT assay; type: cell-based, human
Experimental: SH-SY5Y, the human neuroblastoma cell line, was incubated with MPTP (750 μM) for 24 hrs.

## O=C([O-])c1ccccc1.[Li+] [lithium benzoate]
Primary cortical neurons; 10 μM Aβ 25-35 for 2 days, then drug 1 mM for 4 days, vs no drug treatment
  cortical cell survival after Aβ25-35: statistical improvement
Primary cortical neurons; 1 mM each, 4 days
  reduction of cell death from Aβ25-35 toxicity compared with sodium benzoate and lithium chloride: much more than the other two drugs
[1]; 0.5 mM each
  ROS reduction effect compared with sodium benzoate and lithium chloride: much more significant
[1]; 0.5 mM, incubated 24 hours before 3-NP
  ROS production induced by 3-NP: back to the basal level
[1]; lithium benzoate 0.5, 1 or 3 mM 24 h, then 2.5 mM 3-NP 24 h
  ROS production induced by 3-NP: significantly reduced
[2]
  proportion of mice surviving over time: improved
C57BL/6J mice; vs PBS
  acute mechanically evoked pain (paw withdrawal threshold): alleviated
C57BL/6J mice; tested at 30, 60, 90, 120 min
  time course of the antinociceptive effect: obvious after 30 min of administration and lasted till 60 min
[3]
  retention time on rotarod: significantly improved
[4]
  total time for turning down (TLA), pole test: significantly reduced
  turning time (Tturn), pole test: significantly reduced
Primary cortical cells; overall treatment 53 hours (pre-treatment 24 h, habituation 1 h, OGD 4 h, reperfusion 24 h), 0.3, 1, 3, 5 mM
  cell survival under oxygen-glucose deprivation: significantly protected
Primary cortical cells; post-treatment for 48 hours reperfusion
  cell survival under oxygen-glucose deprivation: cell protection effect at all dose levels
SH-SY5Y cells; 1 mM each, MPTP 750 μM
  cell survival improvement compared with sodium benzoate and lithium chloride: better performance of cell survival improvement than the other two groups
SH-SY5Y cells; 0.3, 1, 3 mM tested, MPTP
  dose at which the protective effect was most obvious: 1 mM
